Measurements reported in patent US10562912B2 (C&C Research Laboratories, priority 2013, dated 2020).

Experiments:
Format in all cases: cell-based
[1] = target: T1, STAT3 (Homo sapiens, UniProt P40763); test: STAT3 reporter gene assay (luciferase), LNCaP stable cell line (pSTAT3-TA-luc), IL-6 stimulation
T1 construct: plasmid pSTAT3-TA-luc), which contains a stably operating STAT3 promoter; endogenous in cells
How it was run: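 Cytotoxicity was run on a duplicate plate with CellTiter-Glo, while the other plate gave luciferase read-outs from lysed LNCaP pSTAT3-TA-luc reporter cells. Cells were treated with graded compound concentrations plus IL-6 (10 ng/mL final) for 24–48 h in 3% DCC-FBS medium. Unstimulated and stimulated wells served as negative and positive controls.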

[2] = system: LNCaP; test: Cell growth inhibition assay, prostate cancer cell line LNCaP (medium with 10 ng/mL IL-6); conditions: Homo sapiens, medium supplemented with 10 ng/mL of IL-6, 10,000 cells/well
[3] = system: DU-145; test: Cell growth inhibition assay, prostate cancer cell line DU-145; conditions: Homo sapiens, DU-145 prostate cancer cell line
How it was run: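 Viability by CellTiter-Glo luminescence after 72–96 h of compound dosing at 37° C. under 5% CO2; DU-145 and HCT116 seeded at 3,000 cells/well, SW626 at 5,000 cells/well.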

[4] = system: HEL92.1.7; test: Cell growth inhibition assay, blood cancer cell line HEL92.1.7; conditions: Homo sapiens, HEL 92.1.7, HEL92.1.7 blood cancer cell line
How it was run: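 Cells were seeded at 3,000/well (HCT116, DU-145) or 5,000/well (SW626 and the others) and exposed to serial compound dilutions for 72 to 96 h at 37 °C under 5% CO2. Viability was read as CellTiter-Glo luminescence against 0.1% DMSO and cell-free wells.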

T1 sequence (P40763 whole entry): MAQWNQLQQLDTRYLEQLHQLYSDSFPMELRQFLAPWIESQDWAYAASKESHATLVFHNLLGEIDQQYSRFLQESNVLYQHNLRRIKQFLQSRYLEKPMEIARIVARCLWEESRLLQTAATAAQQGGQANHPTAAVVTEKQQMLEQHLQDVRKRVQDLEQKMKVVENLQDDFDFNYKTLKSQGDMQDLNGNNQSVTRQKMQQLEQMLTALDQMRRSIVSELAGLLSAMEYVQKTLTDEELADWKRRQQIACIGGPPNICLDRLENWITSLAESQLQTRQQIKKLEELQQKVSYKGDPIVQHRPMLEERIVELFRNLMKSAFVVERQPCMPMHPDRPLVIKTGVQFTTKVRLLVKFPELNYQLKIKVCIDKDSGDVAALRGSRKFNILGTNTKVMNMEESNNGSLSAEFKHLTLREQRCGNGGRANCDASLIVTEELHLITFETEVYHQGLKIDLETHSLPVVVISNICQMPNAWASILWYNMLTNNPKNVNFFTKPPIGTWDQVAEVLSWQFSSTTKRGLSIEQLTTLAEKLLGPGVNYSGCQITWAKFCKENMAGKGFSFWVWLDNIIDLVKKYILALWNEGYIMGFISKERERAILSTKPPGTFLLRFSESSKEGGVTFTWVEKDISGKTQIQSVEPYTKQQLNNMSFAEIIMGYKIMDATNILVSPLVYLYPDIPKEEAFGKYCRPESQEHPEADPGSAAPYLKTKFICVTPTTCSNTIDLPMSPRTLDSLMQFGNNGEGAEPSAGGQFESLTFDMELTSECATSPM

Structure (SMILES)	IC50 [1] [µM]	IC50 [2] [µM]	IC50 [3] [µM]	IC50 [4] [µM]
CC(C)Oc1cc(OC(F)(F)F)cc(C(C)(C)c2cc(Cl)cc(NC(=O)c3cc4cc(NS(C)(=O)=O)c(F)cc4s3)c2)c1 [Example 84, N-(3-chloro-5-(2-(3-isopropoxy-5-(trifluoromethoxy)phenyl)propan-2-yl)phenyl)-6-fluoro-5-(methylsulfonamido)benzo[b]thiophene-2-carboxamide]	0.004	0.008	0.002	0.014
CC(C)Oc1cc(Br)cc(C(C)(C)c2cc(Cl)cc(NC(=O)c3cc4cc(NS(C)(=O)=O)ccc4s3)c2)c1 [Example 91, N-(3-(2-(3-bromo-5-isopropoxyphenyl)propan-2-yl)-5-chlorophenyl)-5-(methylsulfonamido)benzo[b]thiophene-2-carboxamide]	0.032	0.056	0.012	0.078
CS(=O)(=O)Nc1ccc2sc(C(=O)Nc3cc(Cl)cc(Nc4ccc(F)cc4F)c3)cc2c1 [Example 438, N-(3-chloro-5-((2,4-difluorophenyl)amino)phenyl)-5-(methylsulfonamido)benzo[b]thiophene-2-carboxamide]	0.2	0.42	0.16	0.48
CC(C)Oc1cc(OC(F)(F)F)cc(C(C)(C)c2cc(Cl)cc(NC(=O)c3cc4cc(N5CCCS5(=O)=O)ccc4s3)c2)c1 [Example 212, N-(3-chloro-5-(2-(3-isopropoxy-5-(trifluoromethoxy)phenyl)propan-2-yl)phenyl)-5-(1,1-dioxidoisothiazolidin-2-yl)benzo[b]thiophene-2-carboxamide]	0.01	0.075	0.022	0.081
CS(=O)(=O)Nc1ccc2sc(C(=O)Nc3cc(Br)cc(S(=O)(=O)N4CCc5ccc(F)cc5C4)c3)cc2c1 [Example 418, N-(3-bromo-5-((7-fluoro-3,4-dihydroisoquinolin-2(1H)-yl)sulfonyl)phenyl)-5-(methylsulfonamido)benzo[b]thiophene-2-carboxamide]	0.84	1.6	0.98	2.2
CC(C)(c1cc(Cl)cc(NC(=O)c2cc3cc(NS(C)(=O)=O)ccc3s2)c1)c1cc(OCCN2CCOCC2)cc(OC(F)(F)F)c1 [Example 90, N-(3-chloro-5-(2-(3-(2-morpholinoethoxy)-5-(trifluoromethoxy)phenyl)propan-2-yl)phenyl)-5-(methylsulfonamido)benzo[b]thiophene-2-carboxamide]	0.043	0.22	0.048	0.23
CN(C)CCOc1cc(OC(F)(F)F)cc(C(C)(C)c2cc(Cl)cc(NC(=O)c3cc4cc(NS(C)(=O)=O)ccc4s3)c2)c1 [Example 94, N-(3-chloro-5-(2-(3-(2-(dimethylamino)ethoxy)-5-(trifluoromethoxy)phenyl)propan-2-yl)phenyl)-5-(methylsulfonamido)benzo[b]thiophene-2-carboxamide]	1.12	0.27	0.2	0.35
COCCS(=O)(=O)Nc1ccc2sc(C(=O)Nc3cc(Cl)cc(C(C)(C)c4cc(OC(C)C)cc(OC(F)(F)F)c4)c3)cc2c1 [Example 195, N-(3-chloro-5-(2-(3-isopropoxy-5-(trifluoromethoxy)phenyl)propan-2-yl)phenyl)-5-((2-methoxyethyl)sulfonamido)benzo[b]thiophene-2-carboxamide]	0.011	0.035	0.007	0.029
CC(C)(c1ccccc1)c1cc(Cl)cc(NC(=O)c2cc3cc(NS(C)(=O)=O)ccc3s2)c1 [Example 64, N-(3-chloro-5-(2-phenylpropan-2-yl)phenyl)-5-(methylsulfonamido)benzo[b]thiophene-2-carboxamide]	0.065	0.1	0.043	0.11
CC(C)Oc1cc(OC(F)(F)F)cc(C(C)(C)c2cc(Cl)cc(N(CCN3CCOCC3)C(=O)c3cc4cc(N(CCN5CCOCC5)S(C)(=O)=O)c(F)cc4s3)c2)c1 [Example 218, N-(3-chloro-5-(2-(3-isopropoxy-5-(trifluoromethoxy)phenyl)propan-2-yl)phenyl)-6-fluoro-N-(2-morpholinoethyl)-5-(N-(2-morpholinoethyl)methylsulfonamido)benzo[b]thiophene-2-carboxamide]	> 10	7.7	> 1.1	> 1.1
CC(C)(c1cc(Br)cc(NC(=O)c2cc3cc(NS(C)(=O)=O)ccc3s2)c1)c1cc(CN2CCN(C3COC3)CC2)cc(OC(F)(F)C(F)F)c1 [Example 141, N-(3-bromo-5-(2-(3-((4-(oxetan-3-yl)piperazin-1-yl)methyl)-5-(1,1,2,2-tetrafluoroethoxy)phenyl)propan-2-yl)phenyl)-5-(methylsulfonamido)benzo[b]thiophene-2-carboxamide]	0.38	0.36	0.14	1.05
CC(C)(c1ccc(Cl)cc1)c1cc(Cl)cc(NC(=O)c2cc3cc(NS(C)(=O)=O)ccc3s2)c1 [Example 158, N-(3-chloro-5-(2-(4-chlorophenyl)propan-2-yl)phenyl)-5-(methylsulfonamido)benzo[b]thiophene-2-carboxamide]	0.12	0.056	0.048	0.22
CC(C)Oc1cc(Cl)cc(C(C)(C)c2cc(Cl)cc(NC(=O)c3cc4cc(NS(C)(=O)=O)ccc4s3)c2)c1 [Example 92, N-(3-chloro-5-(2-(3-chloro-5-isopropoxyphenyl)propan-2-yl)phenyl)-5-(methylsulfonamido)benzo[b]thiophene-2-carboxamide]	0.067	0.071	0.017	0.1
COc1cc(OC(F)(F)F)cc(C(C)(C)c2cc(Cl)nc(NC(=O)c3cc4cc(NS(C)(=O)=O)ccc4s3)c2)c1 [Example 148, N-(6-chloro-4-(2-(3-methoxy-5-(trifluoromethoxy)phenyl)propan-2-yl)pyridin-2-yl)-5-(methylsulfonamido)benzo[b]thiophene-2-carboxamide]	> 10	0.58	0.38	1
CC(C)Oc1cc(OC(F)(F)F)cc(C(C)(C)c2cc(Cl)cc(NC(=O)c3cc4cc(NC(=O)OC(C)(C)C)ccc4s3)c2)c1 [Example 194, tert-butyl (2-((3-chloro-5-(2-(3-isopropoxy-5-(trifluoromethoxy)phenyl)propan-2-yl)phenyl)carbamoyl)benzo[b]thiophen-5-yl)carbamate]	> 10	> 1.1	> 1.1	> 1.1
COc1ccc(C(C)(C)c2cc(Cl)cc(NC(=O)c3cc4cc(NS(C)(=O)=O)ccc4s3)c2)c(OC)c1 [Example 154, N-(3-chloro-5-(2-(2,4-dimethoxyphenyl)propan-2-yl)phenyl)-5-(methylsulfonamido)benzo[b]thiophene-2-carboxamide]	0.14	0.11	0.17	0.34
CC(C)Oc1cc(OC(F)(F)F)cc(C(C)(C)c2cc(I)cc(NC(=O)c3sc4ccc(NS(C)(=O)=O)cc4c3I)c2)c1 [Example 214, 3-iodo-N-(3-iodo-5-(2-(3-isopropoxy-5-(trifluoromethoxy)phenyl)propan-2-yl)phenyl)-5-(methylsulfonamido)benzo[b]thiophene-2-carboxamide]	0.17	0.99	0.3	> 1.1
COc1cc(OC(F)(F)F)cc(C(C)(C)c2cc(Cl)cc(NC(=O)c3cc4cc(NS(C)(=O)=O)ccc4s3)n2)c1 [Example 150, N-(4-chloro-6-(2-(3-methoxy-5-(trifluoromethoxy)phenyl)propan-2-yl)pyridin-2-yl)-5-(methylsulfonamido)benzo[b]thiophene-2-carboxamide]	0.014	0.016	0.008	0.031
Cc1noc(C)c1S(=O)(=O)Nc1ccc2sc(C(=O)Nc3cc(Cl)cc(C(C)(C)c4cc(OC(C)C)cc(OC(F)(F)F)c4)c3)cc2c1 [Example 199, N-(3-chloro-5-(2-(3-isopropoxy-5-(trifluoromethoxy)phenyl)propan-2-yl)phenyl)-5-((3,5-dimethylisoxazole)-4-sulfonamido)benzo[b]thiophene-2-carboxamide]	0.65	0.34	0.15	0.68
CS(=O)(=O)Nc1ccc2sc(C(=O)Nc3cc(Cl)cc(-c4ccc(F)cc4F)c3)cc2c1 [Example 323, N-(5-chloro-2′,4′-difluoro-[1,1′-biphenyl]-3-yl)-5-(methylsulfonamido)benzo[b]thiophene-2-carboxamide]	0.11	0.063	0.035	0.097
CC(C)(c1cc(Br)cc(NC(=O)c2cc3cc(NS(C)(=O)=O)ccc3s2)c1)c1cc(OC(F)(F)F)cc(OC(F)(F)C(F)F)c1 [Example 87, N-(3-bromo-5-(2-(3-(1,1,2,2-tetrafluoroethoxy)-5-(trifluoromethoxy)phenyl)propan-2-yl)phenyl)-5-(methylsulfonamido)benzo[b]thiophene-2-carboxamide]	0.016	0.028	0.009	0.091
